Measured values reported in PMC11249646, “Small-Molecule Disruptors of the Interaction between Calcium- and Integrin-Binding Protein 1 and Integrin αIIbβ3 as Novel Antiplatelet Agents” (ACS Pharmacology & Translational Science, 2024).
pIC50: −log10 of the molar value. Where two headings read alike, the source gives them in different places. One block for each compound: values may come before it.

Key:
Type in all cases: binding
[1] = target: T1, GST-CIB1 : F-scrambled peptide (Homo sapiens, UniProt Q99828); assay: FP scrambled-peptide counter screen, 384-well format; settings: F-scrambled peptide; for pIC50: read-out: 384-well COUNTERSCREEN IC50; for 384-well COUNTERSCREEN Confirm?: *: Curve in opposite direction
T1 construct: made in house; host or cells: BL-21 plus RIL cells (E. coli)
T1 sequence (Q99828 1-191): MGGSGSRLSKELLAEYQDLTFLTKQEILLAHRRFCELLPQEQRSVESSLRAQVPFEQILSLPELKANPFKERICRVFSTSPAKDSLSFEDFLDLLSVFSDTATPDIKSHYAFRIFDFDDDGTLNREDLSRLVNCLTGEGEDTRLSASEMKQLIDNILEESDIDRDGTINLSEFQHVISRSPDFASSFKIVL

[2] = target: T2, CIB1 and αIIb interaction (GST-CIB1 : F-αIIb peptide) (Homo sapiens, UniProt Q99828); assay: FP assay, 384-well format (screen); set-up: 384-well SCREEN Efficacy (%): concentration or dose not given beside the values; settings: F-αIIb peptide; for 384-well SCREEN Confirm?: YES/NO; for pIC50: read-out: 384-well SCREEN IC50
T2 construct: made in house; host or cells: BL-21 plus RIL cells (E. coli)
T2 sequence (Q99828 1-191): T1 sequence (Q99828 1-191)

[3] = target: T3, CIB1 and αIIb interaction (CIB1-GST : F-αIIb peptide) (Homo sapiens, UniProt Q99828); assay: FP assay, 1536-well qHTS format (primary and confirmatory screen); settings: for CONFIRMATORY SCREEN Confirm?: YES/NO call; for CONFIRMATORY SCREEN Curve Class: qHTS curve class; for CONFIRMATORY SCREEN Curve Class / Curve Class: negative sign = inhibitory curve; for CONFIRMATORY SCREEN Efficacy (%) / Efficacy (%): negative = inhibition
T3 construct: made in house; host or cells: BL-21 plus RIL cells (E. coli)
T3 sequence (Q99828 1-191): T1 sequence (Q99828 1-191)

[4] = target: T1, GST-CIB1 : F-scrambled peptide; assay: FP scrambled-peptide counter screen, 1536-well format; settings: scrambled-peptide counterscreen; for COUNTERSCREEN Confirm?: YES/NO call; for COUNTERSCREEN Curve Class: qHTS curve class
[5] = confirmatory screen, read-out: CONFIRMATORY SCREEN IC50
[6] = qHTS FP screen hits, Table S2, read-out: IC50
[7] = qHTS primary screen hits, Table S2
[8] = qHTS primary screen hits, Table S2, read-out: IC50

Structure (SMILES): O=C(O)C(F)(F)F.O=C(O)c1ccc(-c2ccc3ncnc(NCc4nccs4)c3c2)o1 [NCGC00229620-01]
384-well COUNTERSCREEN Efficacy (%) [1]: 48%
pIC50 [1]: 4.50
384-well SCREEN Efficacy (%) [2]: 40%
384-well SCREEN Confirm? [2]: YES
pIC50 [2]: 4.75
CONFIRMATORY SCREEN Confirm? ([3]; confirmatory screen): YES
CONFIRMATORY SCREEN Curve Class ([3]; confirmatory screen): -2.4
CONFIRMATORY SCREEN Efficacy (%) ([3]; confirmatory screen): -55%
pIC50 [3, 5]: 4.35
Efficacy (%) ([3]; qHTS FP screen hits, Table S2): -25%
pIC50 [3, 6]: 5.00
COUNTERSCREEN Efficacy (%) [4]: -21%
COUNTERSCREEN Confirm? [4]: YES
COUNTERSCREEN Curve Class [4]: 4

Structure (SMILES): Cc1csc(CNc2ncnc3ccc(-c4ccc(CO)o4)cc23)n1.O=C(O)C(F)(F)F [NCGC00229623-01]
384-well COUNTERSCREEN Efficacy (%) [1]: 39%
pIC50 [1]: 4.60
384-well SCREEN Efficacy (%) [2]: 70%
384-well SCREEN Confirm? [2]: YES
pIC50 [2]: 4.45
CONFIRMATORY SCREEN Confirm? ([3]; confirmatory screen): YES
CONFIRMATORY SCREEN Curve Class ([3]; confirmatory screen): -3
CONFIRMATORY SCREEN Efficacy (%) ([3]; confirmatory screen): -83%
Efficacy (%) [3, 7]: -60%
Curve Class [3, 7]: -2.2
COUNTERSCREEN Efficacy (%) [4]: -25%
COUNTERSCREEN Confirm? [4]: YES
COUNTERSCREEN Curve Class [4]: 4

Structure (SMILES): CC(O)c1ccc(-c2ccc3ncnc(NCc4nccs4)c3c2)o1.O=C(O)C(F)(F)F (centres unmarked) [NCGC00238382-01]
384-well COUNTERSCREEN Efficacy (%) [1]: 36%
384-well COUNTERSCREEN Confirm? [1]: YES
pIC50 [1]: 4.75
384-well SCREEN Efficacy (%) [2]: 61%
384-well SCREEN Confirm? [2]: YES
pIC50 [2]: 4.85
CONFIRMATORY SCREEN Confirm? ([3]; confirmatory screen): YES
CONFIRMATORY SCREEN Curve Class ([3]; confirmatory screen): -3
CONFIRMATORY SCREEN Efficacy (%) ([3]; confirmatory screen): -53%
Efficacy (%) ([3]; qHTS FP screen hits, Table S2): -63%
Curve Class ([3]; qHTS FP screen hits, Table S2, one class per curve where COUNT > 1): -2.2
pIC50 [3, 6]: 4.40
COUNTERSCREEN Efficacy (%) [4]: 0%
COUNTERSCREEN Confirm? [4]: YES
COUNTERSCREEN Curve Class [4]: 4

Structure (SMILES): O=C(O)C(F)(F)F.OCc1ccc(-c2ccc3ncnc(NCc4nccs4)c3c2)o1 [NCGC00238383-01]
384-well COUNTERSCREEN Efficacy (%) [1]: 47%
pIC50 [1]: 4.40
384-well SCREEN Efficacy (%) [2]: 69%
384-well SCREEN Confirm? [2]: YES
pIC50 [2]: 4.60
CONFIRMATORY SCREEN Confirm? ([3]; confirmatory screen): YES
CONFIRMATORY SCREEN Curve Class ([3]; confirmatory screen): -3
CONFIRMATORY SCREEN Efficacy (%) ([3]; confirmatory screen): -52%
pIC50 [3, 5]: 4.15
Efficacy (%) [3, 7]: -70%
Curve Class [3, 7]: -2.2
pIC50 [3, 8]: 4.40
COUNTERSCREEN Efficacy (%) [4]: -16%
COUNTERSCREEN Confirm? [4]: YES
COUNTERSCREEN Curve Class [4]: 4

Structure (SMILES): CCOC(=O)c1c(NC(=O)C2CC(Cl)=CCC2C(=O)O)sc2c1CCCCC2.O=C(O)C(F)(F)F (centres unmarked) [NCGC00238648-01]
384-well COUNTERSCREEN Efficacy (%) [1]: 12%
pIC50 [1]: < 3.92
384-well SCREEN Efficacy (%) [2]: 15%
pIC50 [2]: < 3.92
CONFIRMATORY SCREEN Confirm? ([3]; confirmatory screen): YES
CONFIRMATORY SCREEN Curve Class ([3]; confirmatory screen): -2.2
CONFIRMATORY SCREEN Efficacy (%) ([3]; confirmatory screen): -59%
Efficacy (%) ([3]; qHTS FP screen hits, Table S2): -22%
pIC50 [3, 6]: 4.45
COUNTERSCREEN Efficacy (%) [4]: 16%
COUNTERSCREEN Confirm? [4]: YES
COUNTERSCREEN Curve Class [4]: 4

384-well COUNTERSCREEN Efficacy (%) [1]: 45%
384-well COUNTERSCREEN Confirm? [1]: YES
pIC50 [1]: < 3.92
384-well SCREEN Efficacy (%) [2]: 65%
384-well SCREEN Confirm? [2]: YES
pIC50 [2]: 4.95
CONFIRMATORY SCREEN Confirm? ([3]; confirmatory screen): YES
CONFIRMATORY SCREEN Curve Class ([3]; confirmatory screen): -1.2
CONFIRMATORY SCREEN Efficacy (%) ([3]; confirmatory screen): -59%
pIC50 [3, 5]: 4.55
Efficacy (%) [3, 7]: -49%
Curve Class ([3]; qHTS primary screen hits, Table S2, several classes where COUNT > 1): -2.2
pIC50 [3, 8]: 4.40
COUNTERSCREEN Efficacy (%) [4]: -10%
COUNTERSCREEN Confirm? [4]: YES
COUNTERSCREEN Curve Class [4]: 4
Structure (SMILES): COC(=O)c1ccc2c(c1)S(=O)(=O)N=C2Sc1cc(C)ccc1C [NCGC00238687-01]

Structure (SMILES): CCOC(=O)c1ccc(O)c2ncc(-c3ccc(C(=N)N)cc3)cc12.O=C(O)C(F)(F)F [NCGC00241050-01]
384-well COUNTERSCREEN Efficacy (%) [1]: 77%
384-well COUNTERSCREEN Confirm? [1]: Inconclusive
384-well SCREEN Efficacy (%) [2]: 87%
384-well SCREEN Confirm? [2]: YES
pIC50 [2]: 4.70
CONFIRMATORY SCREEN Confirm? ([3]; confirmatory screen): YES
CONFIRMATORY SCREEN Curve Class ([3]; confirmatory screen): -2.2
CONFIRMATORY SCREEN Efficacy (%) ([3]; confirmatory screen): -52%
Efficacy (%) ([3]; qHTS FP screen hits, Table S2): -77%
pIC50 [3, 6]: 4.35
COUNTERSCREEN Efficacy (%) [4]: -18%
COUNTERSCREEN Confirm? [4]: YES
COUNTERSCREEN Curve Class [4]: 4
